Results as given in US20240374535A1, “COMPOSITIONS AND METHODS FOR TREATING BIOFILM DISORDERS AND INFECTIONS” (AHV International B.V., priority 2021, published 2024).

What was measured:
[1] = tested on: Pseudomonas aeruginosa ATCC 27853; assay: MIC assay (planktonic growth inhibition, OD600); assay type: cell-based, P. aeruginosa; conditions: 24 h at 37° C.
Outline: (§1)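 Broth microdilution in MHB-II, two-fold series from 8 mM stock solution (Tween 80/DMSO co-diluted, 2.5% in top well). Inoculum from overnight TSA colonies adjusted to OD600 0.0008 (~10^6 CFU/mL); 24 h at 37° C., growth read as OD600; three independent experiments.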

[2] = tested on: Staphylococcus epidermis ATCC 35984 biofilm; assay: MBIC assay (biofilm inhibition, crystal violet); assay type: cell-based, S. epidermidis; conditions: 48 h incubation, absorbance 540 nm
Protocol: (§2) The exact weighed amount was noted and the volume of solvent to reach a 80 mM dilution calculated. Half of the volume was added first, by adding Tween 80. In a second step, the other half of the volume DMSO was added and the closed tube inverted 5-10 times and then vortexed very thoroughly for at least 30 seconds. If after this procedure unsolved material was still visible, the tube was placed in a shaker at 37° C. at 150 rpm for at least 30 minutes. […] For the MBEC assay (method 1.3) the solution needs to be diluted to a final concentration of 2 mM in 0.9% saline solution and then further diluted to 1 mM, 0.5 mM, 0.25 mM and 0.125 mM in saline. Those dilutions were added as treatment to the 96 well plates with the grown biofilm (see method 3).
(§3) Frozen aliquots of Staphylococcus epidermis ATCC 35984 and Pseudomonas aeruginosa ATCC 27853 were used to inoculate a tryptic soy agar (TSA) plate and were incubated overnight at 37° C. After incubation 3-5 well-isolated colonies with the same morphology were selected from the TSA plate and resuspended in 2 mL 0.9% saline solution with 3-6 glass beads and vortexed. The optical density of the bacterial suspension was measured at 600 nm (OD600) with a spectrophotometer (Evolution™ 201/220 UV-Visible Spectrophotometer, Thermo Fisher Scientific) and diluted to an OD600 of 0.2. The MBIC assay was performed in a 96-microtiter plate. 50 μL of TSB was added into columns 2-11, and 100 μL to column 12 for sterility control. 100 μL of the 8 mM test compound solution (method 1) was added to column 1. A two-fold dilution series of the solution in TSB was achieved by resuspending 50 μL of the 8 mM solution from column 1 in column 2. This step was repeated until column 10. The respective concentration of Tween 80 and DMSO in column 1 is at 2.5%, which is two-fold diluted throughout the plate. 50 μL of the bacterial suspension was added to column 1-11. The microtiter plates were sealed with adhesive polyethylene film for sealing microplates (Diversified Biotech) and incubated for 48 h at 37° C. After incubation the supernatant is carefully removed and the well with the biofilm washed for one time with 100 μL 0.9% saline solution. 100 μL 0.1 M HCl was added and incubated for 1 h at room temperature to fix the biofilm. After incubation the HCl was removed and 100 μL crystal violet (0.1% v/v in water) was added and incubated for 30 min at room temperature. The unbound crystal violet was removed and the wells washed one time with 100 μL demineralized water. 100 μL 30% acetic acid was added and incubated for 1 h at 37° C. and 150 rpm. The solution was resuspended and transferred to a flat-bottom 96-well plate and the absorbance measured at 540 nm with the spectrophotometer. This assay was repeated two times in two independent experiments.

[3] = tested on: Pseudomonas aeruginosa ATCC 27853 biofilm; assay: MBIC assay (biofilm inhibition, crystal violet); assay type: cell-based, P. aeruginosa; conditions: 48 h incubation, absorbance 540 nm
Protocol: as §2, §3

[4] = tested on: Staphylococcus epidermis ATCC 35984; assay: MIC assay (planktonic growth inhibition, OD600); assay type: cell-based, S. epidermidis; conditions: 24 h at 37° C.
Outline: as §1

[5] = tested on: cows with a SCC of more as 250.000 cells/ml; assay: In vivo mastitis test: somatic cell count (SCC) in milk after a single oral tablet; set-up: species or system cow; conditions: single oral tablet (10 g), 60 days, FIG. 1
Protocol: Experiments were performed to examine the effect of compounds on the cell count or somatic cell count (SCC) in milk.
Somatic cell counts (SCC) is related to the amount of pathogens that are in the quarter visible for the immune system. The cell count of each cow was measured with the milk production registration (MPR). This MPR is done periodically every 30-40 days at all farms. The Somatic Cell Count (SCC) is a main indicator of milk quality. The majority of somatic cells are leukocytes (white blood cells)—which become present in increasing numbers in milk usually as an immune response to a mastitis-causing pathogen—and a small number of epithelial cells, which are milk-producing cells shed from inside of the udder when an infection occurs.
The SCC data was extracted from milk production registrations (MPRs). MPRs are databases showing all details (e.g. SCC) of the produced milk per individual cow. MPRs of the selected farms were available periodically. SCC is quantified as the number of cells per ml of milk. In general terms: an individual cow with a value for SCC of 100,000 or less indicates an ‘uninfected’ cow and there were no significant production losses due to subclinical mastitis. A threshold SCC above 250,000 indicates infection and counts between 100,000 to 250,000 indicate a high risk of infection.
The experiments were performed on a farm with 90 cows. Examination was performed on cell count with the above described tablets during 60 days.
Cows with a SCC of more as 250.000 cells/ml before treatment were selected for administration of a single tablet.

[6] = minimal concentration reducing final OD600 by 50%
[7] = minimal concentration reducing final OD600 by 90%

IC50 ([1]; Pseudomonas aeruginosa, ATCC27853, minimal concentration reducing final OD600 by 50%, read-out: P. aeruginosa MIC50) [µM]	IC90 ([1]; Pseudomonas aeruginosa, ATCC27853, minimal concentration reducing final OD600 by 90%, read-out: P. aeruginosa MIC90) [µM]	IC50 ([4]; minimal concentration reducing final OD600 by 50%, read-out: S. epidermidis MIC50) [µM]	IC90 ([4]; minimal concentration reducing final OD600 by 90%, read-out: S. epidermidis MIC90) [µM]	SMILES	P. aeruginosa MIC50 [1, 6] [µM]	P. aeruginosa MIC90 [1, 7] [µM]	S. epidermidis MBIC90 [2] [mM]	P. aeruginosa MBIC90 [3] [mM]	S. epidermidis MIC50 [4, 6] [µM]	S. epidermidis MIC90 [4, 7] [µM]	somatic cell count (SCC) of milk [5]
				CSS(C)(=O)=O [Di-methyl thiosulfonate, methyl methane thiosulfonate]	250	500	>4	4	250	250	significantly decreased
1000	2000	250	500	CCCS[S+]([O-])CCC (centres unmarked) [Di-n-propyl thiosulfinate, S-propyl propane-1-sulfinothioate]			>4	2			significantly decreased
